The source of these data is US20250320193A1, “OXOISOINDOLINYL SUBSTITUTED PIPERIDINEDIONE DERIVATIVE AND USE THEREOF” (GLUETACS THERAPEUTICS (SHANGHAI) CO., LTD., priority 2022, published 2025).

Type in all cases: cell-based
The target in one assay is IKZF1 (Homo sapiens (Human), UniProt Q13422+Q96SW2). Put plainly: Western blot, substrate protein expression in hPBMC: IKZF1. To be noted: for substrate protein remaining % IKZF1: hPBMC, compound 500 nM, 24 hours, Western blot. How it is done: (§1) The effect of the compounds of the present disclosure on the expression of target proteins in cells was detected using conventional Western blot analysis.
Chain of IKZF1 (Q13422 whole entry): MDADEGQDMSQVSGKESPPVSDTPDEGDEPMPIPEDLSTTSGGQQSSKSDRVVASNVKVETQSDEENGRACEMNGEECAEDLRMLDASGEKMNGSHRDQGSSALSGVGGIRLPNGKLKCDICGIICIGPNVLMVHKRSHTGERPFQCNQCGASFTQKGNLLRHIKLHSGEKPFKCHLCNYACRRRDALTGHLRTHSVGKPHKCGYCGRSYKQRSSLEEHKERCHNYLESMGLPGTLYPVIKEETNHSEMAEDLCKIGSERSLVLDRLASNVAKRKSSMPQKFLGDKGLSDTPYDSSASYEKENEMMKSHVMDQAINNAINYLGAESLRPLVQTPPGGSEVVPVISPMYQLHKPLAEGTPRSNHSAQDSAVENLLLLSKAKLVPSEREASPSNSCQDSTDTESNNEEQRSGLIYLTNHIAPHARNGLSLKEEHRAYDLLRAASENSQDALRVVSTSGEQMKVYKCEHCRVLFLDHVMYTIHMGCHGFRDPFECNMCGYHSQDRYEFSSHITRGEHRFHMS
Chain of IKZF1 (Q96SW2 whole entry): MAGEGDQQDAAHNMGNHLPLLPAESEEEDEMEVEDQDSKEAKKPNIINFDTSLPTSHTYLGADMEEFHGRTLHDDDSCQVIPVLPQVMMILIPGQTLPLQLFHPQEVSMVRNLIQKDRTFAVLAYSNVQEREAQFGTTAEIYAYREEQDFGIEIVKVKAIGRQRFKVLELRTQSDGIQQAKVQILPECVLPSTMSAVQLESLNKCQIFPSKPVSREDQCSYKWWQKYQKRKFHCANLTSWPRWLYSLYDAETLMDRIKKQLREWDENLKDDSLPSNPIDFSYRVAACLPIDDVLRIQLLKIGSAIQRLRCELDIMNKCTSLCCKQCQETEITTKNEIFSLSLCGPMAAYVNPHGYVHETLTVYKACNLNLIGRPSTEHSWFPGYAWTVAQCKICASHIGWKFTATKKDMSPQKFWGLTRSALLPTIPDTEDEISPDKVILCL
Chain of IKZF1 (Q16531 whole entry partner): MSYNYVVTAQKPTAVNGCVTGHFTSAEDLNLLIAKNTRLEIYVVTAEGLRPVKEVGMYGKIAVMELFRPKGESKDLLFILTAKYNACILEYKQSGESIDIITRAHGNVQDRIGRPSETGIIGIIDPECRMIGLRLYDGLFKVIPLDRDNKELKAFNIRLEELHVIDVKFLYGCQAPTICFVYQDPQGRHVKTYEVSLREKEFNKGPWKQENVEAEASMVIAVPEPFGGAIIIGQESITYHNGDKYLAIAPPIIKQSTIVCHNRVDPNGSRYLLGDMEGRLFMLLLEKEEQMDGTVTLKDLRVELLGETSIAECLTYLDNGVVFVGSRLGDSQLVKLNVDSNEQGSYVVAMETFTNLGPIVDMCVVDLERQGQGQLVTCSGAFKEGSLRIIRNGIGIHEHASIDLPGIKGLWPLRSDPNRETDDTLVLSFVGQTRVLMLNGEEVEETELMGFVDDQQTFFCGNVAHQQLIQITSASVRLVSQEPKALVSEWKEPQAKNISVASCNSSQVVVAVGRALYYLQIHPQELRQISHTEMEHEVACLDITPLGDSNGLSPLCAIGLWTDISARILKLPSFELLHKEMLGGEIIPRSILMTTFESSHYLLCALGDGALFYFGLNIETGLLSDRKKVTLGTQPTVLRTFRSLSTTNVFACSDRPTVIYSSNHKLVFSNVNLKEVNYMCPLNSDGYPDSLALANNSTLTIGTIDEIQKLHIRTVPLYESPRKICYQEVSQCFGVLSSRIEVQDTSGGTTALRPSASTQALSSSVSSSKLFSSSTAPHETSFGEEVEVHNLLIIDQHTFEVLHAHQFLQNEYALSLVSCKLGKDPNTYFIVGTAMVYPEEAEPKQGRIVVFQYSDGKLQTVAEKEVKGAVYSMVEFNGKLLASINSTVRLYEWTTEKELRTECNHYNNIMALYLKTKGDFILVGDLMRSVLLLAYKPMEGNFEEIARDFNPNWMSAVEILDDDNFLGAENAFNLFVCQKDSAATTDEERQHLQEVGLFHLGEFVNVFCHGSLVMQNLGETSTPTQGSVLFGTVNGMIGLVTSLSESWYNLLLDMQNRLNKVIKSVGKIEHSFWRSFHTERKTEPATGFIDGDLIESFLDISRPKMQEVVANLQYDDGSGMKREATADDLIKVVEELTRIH
(§2) Human peripheral blood mononuclear cells (hPBMCs) at a density of 1×10^6 cells/mL were thawed according to the PBMC Recovery Protocol (Milecell Biotechnologies Inc, Shanghai). […] After 24 hours of compounds treatment, cells were harvested and lysed in RIPA protein lysate containing phosphatase inhibitors on ice for 30-60 min, followed by centrifugation. The supernatant was aspirated as the extracted total cell protein. The protein concentration of the supernatant was determined using the conventional BCA (Bicinchoninic Acid) assay. The supernatant was then mixed with 4× SDS sample loading buffer, denatured at 95° C. for 5 minutes, and then subjected to SDS-PAGE electrophoresis on a polyacrylamide gel. Proteins were then transferred to a nitrocellulose (NC) membrane, blocked at room temperature for 1-2 h, and processed for antibody incubation and detection according to the manufacturer's instructions (Cell Signaling Technology).
(§3) Half-Maximal Degradation Concentration value (the drug concentration required for degrading proteins by 50%, abbreviated as DC50) reads method: comparing the grayscale values of Western blot bands from drug-treated samples (protein degrader compounds) with those from blank (DMSO-treated) controls, and identifying the drug concentration range at which the grayscale value is half that of the DMSO-treated control bands.
(§4) DC50 values can be calculated using ImageJ software to measure grayscale values of Western blot bands from drug-treated samples. The relationship curve between drug concentration and grayscale values is fitted to estimate the drug concentration corresponding to half the grayscale value.
(§5) Target protein remaining (%) refers to the percentage of target protein remaining in hPBMC cells after treatment with protein degrader compounds.
(§6) Calculation method for protein remaining (%): Use ImageJ software to measure grayscale values of Western blot bands from drug (protein degrader)-treated samples. The grayscale value of drug-treated bands is divided by that of internal control protein bands, and the resulting quotient is normalized to obtain the relative percentage of remaining target protein after protein degrader treatment.
(§7) Target protein degradation rate (%)=100%-target protein remaining (%).
Background: A western blot detects proteins with antibodies after separation by electrophoresis.

Another assay has as its target GSPT1 (Homo sapiens (Human), UniProt P15170+Q96SW2). The assay can be described thus: Western blot, substrate protein expression in hPBMC: GSPT1. As to conditions: for substrate protein remaining % GSPT1: hPBMC, compound 500 nM, 24 hours, Western blot. How it is done: as §1, §2, §3, §4, §5, §6, §7
The next assay concerns the target IKZF3 (Homo sapiens (Human), UniProt Q96SW2+Q9UKT9). Put plainly: Western blot, substrate protein expression in hPBMC: IKZF3. As to conditions: for substrate protein remaining % IKZF3: hPBMC, compound 500 nM, 24 hours, Western blot. As for the experimental part: as §1, §2, §3, §4, §5, §6, §7

Chain of IKZF3 (Q9UKT9 whole entry): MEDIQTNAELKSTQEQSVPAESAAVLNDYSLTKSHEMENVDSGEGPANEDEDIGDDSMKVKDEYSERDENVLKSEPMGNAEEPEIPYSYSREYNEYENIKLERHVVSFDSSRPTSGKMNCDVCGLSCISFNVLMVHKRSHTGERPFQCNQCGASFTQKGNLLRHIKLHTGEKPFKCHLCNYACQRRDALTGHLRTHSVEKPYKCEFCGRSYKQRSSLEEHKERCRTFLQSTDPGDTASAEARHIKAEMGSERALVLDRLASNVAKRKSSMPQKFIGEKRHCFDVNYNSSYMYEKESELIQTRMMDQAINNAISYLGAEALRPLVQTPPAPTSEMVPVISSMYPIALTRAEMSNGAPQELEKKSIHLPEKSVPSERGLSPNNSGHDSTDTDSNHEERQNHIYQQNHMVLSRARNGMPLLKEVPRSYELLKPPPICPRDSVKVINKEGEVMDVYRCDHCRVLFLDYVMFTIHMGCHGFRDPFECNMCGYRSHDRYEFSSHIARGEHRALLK
Chain of IKZF3 (Q96SW2 whole entry): as the sequence (Q96SW2 whole entry) above
Chain of IKZF3 (Q16531 whole entry partner): as the sequence (Q16531 whole entry partner) above
Chain of GSPT1 (P15170 whole entry): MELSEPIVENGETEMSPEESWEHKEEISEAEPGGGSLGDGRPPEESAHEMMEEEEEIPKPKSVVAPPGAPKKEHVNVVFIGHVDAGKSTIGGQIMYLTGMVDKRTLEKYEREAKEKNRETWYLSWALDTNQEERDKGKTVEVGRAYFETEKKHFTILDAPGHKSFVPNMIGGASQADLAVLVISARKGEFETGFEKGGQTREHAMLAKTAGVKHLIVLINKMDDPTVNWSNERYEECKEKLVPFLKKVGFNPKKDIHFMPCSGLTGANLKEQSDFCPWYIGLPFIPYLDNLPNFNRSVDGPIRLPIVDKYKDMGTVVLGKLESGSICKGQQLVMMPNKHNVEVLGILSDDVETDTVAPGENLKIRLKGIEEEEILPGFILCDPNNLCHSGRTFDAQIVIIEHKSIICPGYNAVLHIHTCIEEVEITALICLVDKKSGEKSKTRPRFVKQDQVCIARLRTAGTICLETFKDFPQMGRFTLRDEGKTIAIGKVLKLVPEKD
Chain of GSPT1 (Q96SW2 whole entry): as the sequence (Q96SW2 whole entry) above
Chain of GSPT1 (Q16531 whole entry partner): as the sequence (Q16531 whole entry partner) above

Regarding `O=C1CCC(N2C(=O)c3ccc(CN4CCN(C(c5ccc(F)cc5)c5ccc(F)cc5)CC4)cc3C2=O)C(=O)N1` (stereo not drawn) [GT-05726, 5-((4-(bis(4-fluorophenyl)methyl)piperazin-1-yl)methyl)-2-(2,6-dioxopiperidin-3-yl) isoindoline-1,3-dione], the “substrate protein remaining % IKZF1” value on IKZF1 is recorded as “B (B represents substrate protein remaining % > 50%)”. Also, on GSPT1, the “substrate protein remaining % GSPT1” value is given as “A (A represents 0% ≤ substrate protein remaining % ≤ 50%)”. The “substrate protein remaining % IKZF3” value at IKZF3 was “A (A represents 0% ≤ substrate protein remaining % ≤ 50%)”.

Consider `O=C1CCC(N2C(=O)c3ccc(CN4CCN(C(c5ccc(Cl)cc5)c5ccc(Cl)cc5)CC4)cc3C2=O)C(=O)N1` (stereo not drawn) [GT-05727, 5-((4-(bis(4-chlorophenyl)methyl)piperazin-1-yl)methyl)-2-(2,6-dioxopiperidin-3-yl) isoindoline-1,3-dione], for which the “substrate protein remaining % IKZF1” value on IKZF1 is reported as “B (B represents substrate protein remaining % > 50%)”. Further, the “substrate protein remaining % GSPT1” value at GSPT1 is given as “A (A represents 0% ≤ substrate protein remaining % ≤ 50%)”. The “substrate protein remaining % IKZF3” value on IKZF3 is “A (A represents 0% ≤ substrate protein remaining % ≤ 50%)”.

Turning to `O=C1CCC(N2C(=O)c3ccc(CN4CCCN(C(c5ccccc5)c5ccccc5)CC4)cc3C2=O)C(=O)N1` (stereo not drawn) [GT-05739, 5-((4-benzhydryl-1,4-diazepan-1-yl)methyl)-2-(2,6-dioxopiperidin-3-yl) isoindoline-1,3-dione], the “substrate protein remaining % IKZF1” value on IKZF1 was “B (B represents substrate protein remaining % > 50%)”. Also, the “substrate protein remaining % GSPT1” value on GSPT1 is listed as “A (A represents 0% ≤ substrate protein remaining % ≤ 50%)”. The “substrate protein remaining % IKZF3” value on IKZF3 is listed as “B (B represents substrate protein remaining % > 50%)”.

For `O=C1CCC(N2C(=O)c3ccc(CN4CCC(N(c5ccccc5)c5ccccn5)CC4)cc3C2=O)C(=O)N1` (stereo not drawn) [GT-05742, 2-(2,6-dioxopiperidin-3-yl)-5-((4-(phenyl(pyridin-2-yl)amino)piperidin-1-yl)methyl) isoindoline-1,3-dione], the “substrate protein remaining % IKZF1” value at IKZF1 was “A (A represents 0% ≤ substrate protein remaining % ≤ 50%)”. Further, the “concentration at which IKZF1 protein was significantly degraded (Western blot, FIG. 1)” value on IKZF1 (hPBMCs) is reported as “below 50 nM”. For the same compound, at GSPT1, the “substrate protein remaining % GSPT1” value is “A (A represents 0% ≤ substrate protein remaining % ≤ 50%)”. Moreover, on GSPT1 (hPBMCs), the “concentration at which GSPT1 protein was clearly/significantly degraded (Western blot, FIG. 1)” value was “below 50 nM”. For the same compound, on IKZF3, the “substrate protein remaining % IKZF3” value was “A (A represents 0% ≤ substrate protein remaining % ≤ 50%)”. Also, the “concentration at which IKZF3 protein was significantly degraded (Western blot, FIG. 1)” value at IKZF3 (hPBMCs) is “below 50 nM”.

Take `O=C1CCC(N2Cc3ccc(C(=O)N4CCN(C(c5ccccc5)c5ccccc5)CC4)cc3C2=O)C(=O)N1` (stereo not drawn) [GT-05851, 3-(6-(4-benzhydrylpiperazine-1-carbonyl)-1-oxoisoindolin-2-yl)piperidine-2,6-dione]: on IKZF1, the “substrate protein remaining % IKZF1” value was “A (A represents 0% ≤ substrate protein remaining % ≤ 50%)”. On GSPT1, the “substrate protein remaining % GSPT1” value is reported as “A (A represents 0% ≤ substrate protein remaining % ≤ 50%)”. The “substrate protein remaining % IKZF3” value at IKZF3 was “B (B represents substrate protein remaining % > 50%)”.

Take `O=C1CCC(N2C(=O)c3ccc(C(=O)N4CCN(C(c5ccccn5)c5ccccn5)CC4)cc3C2=O)C(=O)N1` (stereo not drawn) [GT-05880, 5-(4-(di(pyridin-2-yl)methyl)piperazine-1-carbonyl)-2-(2,6-dioxopiperidin-3-yl) isoindoline-1,3-dione]: the “substrate protein remaining % IKZF1” value at IKZF1 is “B (B represents substrate protein remaining % > 50%)”. Moreover, the “substrate protein remaining % GSPT1” value at GSPT1 is on record as “A (A represents 0% ≤ substrate protein remaining % ≤ 50%)”. For the same compound, the “substrate protein remaining % IKZF3” value at IKZF3 is on record as “B (B represents substrate protein remaining % > 50%)”.

On to `O=C1CCC(N2C(=O)c3ccc(C(=O)N4CCN(C(c5ccc(F)cc5)c5ccc(F)cc5)CC4)cc3C2=O)C(=O)N1` (stereo not drawn) [GT-05885, 5-(4-(bis(4-fluorophenyl)methyl)piperazine-1-carbonyl)-2-(2,6-dioxopiperidin-3-yl) isoindoline-1,3-dione], for which the “substrate protein remaining % IKZF1” value on IKZF1 is given as “B (B represents substrate protein remaining % > 50%)”. In addition, the “substrate protein remaining % GSPT1” value at GSPT1 is “A (A represents 0% ≤ substrate protein remaining % ≤ 50%)”. Further, the “substrate protein remaining % IKZF3” value on IKZF3 is “B (B represents substrate protein remaining % > 50%)”.

Regarding `O=C1CCC(N2C(=O)c3ccc(C(=O)N4CCN(C(c5ccc(Cl)cc5)c5ccc(Cl)cc5)CC4)cc3C2=O)C(=O)N1` (stereo not drawn) [GT-05890, 5-(4-(bis(4-chlorophenyl)methyl)piperazine-1-carbonyl)-2-(2,6-dioxopiperidin-3-yl) isoindoline-1,3-dione], the “substrate protein remaining % IKZF1” value at IKZF1 is “B (B represents substrate protein remaining % > 50%)”. For the same compound, at GSPT1, the “substrate protein remaining % GSPT1” value is on record as “A (A represents 0% ≤ substrate protein remaining % ≤ 50%)”. In addition, the “substrate protein remaining % IKZF3” value at IKZF3 is “B (B represents substrate protein remaining % > 50%)”.

In the case of `O=C1CCC(N2Cc3cc(C(=O)N4C5CC4CN(C(c4ccccc4)c4ccccc4)C5)ccc3C2=O)C(=O)N1` (stereo not drawn) [GT-05891, 3-(5-(3-benzhydryl-3,6-diazabicyclo[3.1.1]heptane-6-carbonyl)-1-oxoisoindolin-2-yl)piperidine-2,6-dione], the “substrate protein remaining % IKZF1” value on IKZF1 is on record as “B (B represents substrate protein remaining % > 50%)”. Also, the “substrate protein remaining % GSPT1” value at GSPT1 is listed as “A (A represents 0% ≤ substrate protein remaining % ≤ 50%)”. The “substrate protein remaining % IKZF3” value at IKZF3 is reported as “B (B represents substrate protein remaining % > 50%)”.

As for `O=C1CCC(N2Cc3cc(C(=O)N4CCCN(C(c5ccccc5)c5ccccc5)CC4)ccc3C2=O)C(=O)N1` (stereo not drawn) [GT-05892, 3-(5-(4-benzhydryl-1,4-diazepane-1-carbonyl)-1-oxoisoindolin-2-yl)piperidine-2,6-dione], the “substrate protein remaining % IKZF1” value at IKZF1 is given as “B (B represents substrate protein remaining % > 50%)”. The “substrate protein remaining % GSPT1” value at GSPT1 is “A (A represents 0% ≤ substrate protein remaining % ≤ 50%)”. Besides, at IKZF3, the “substrate protein remaining % IKZF3” value is reported as “B (B represents substrate protein remaining % > 50%)”.

Regarding `O=C1CCC(N2C(=O)c3ccc(CN4CCN(C5c6ccccc6-c6ccccc65)CC4)cc3C2=O)C(=O)N1` (stereo not drawn) [GT-05908, 5-((4-(9H-fluoren-9-yl)piperazin-1-yl)methyl)-2-(2,6-dioxopiperidin-3-yl) isoindoline-1,3-dione], on IKZF1, the “substrate protein remaining % IKZF1” value is “A (A represents 0% ≤ substrate protein remaining % ≤ 50%)”. In addition, on GSPT1, the “substrate protein remaining % GSPT1” value was “A (A represents 0% ≤ substrate protein remaining % ≤ 50%)”. Moreover, on IKZF3, the “substrate protein remaining % IKZF3” value is reported as “A (A represents 0% ≤ substrate protein remaining % ≤ 50%)”.

For `O=C1CCC(N2C(=O)c3ccc(C(=O)N4CCC(N(c5ccccc5)c5ccccn5)CC4)cc3C2=O)C(=O)N1` (stereo not drawn) [GT-05925, 2-(2,6-dioxopiperidin-3-yl)-5-(4-(phenyl(pyridin-2-yl)amino)piperidine-1-carbonyl) isoindoline-1,3-dione], the “substrate protein remaining % IKZF1” value on IKZF1 is on record as “B (B represents substrate protein remaining % > 50%)”. Also, on GSPT1, the “substrate protein remaining % GSPT1” value is on record as “A (A represents 0% ≤ substrate protein remaining % ≤ 50%)”. For the same compound, the “substrate protein remaining % IKZF3” value on IKZF3 is listed as “B (B represents substrate protein remaining % > 50%)”.
